Numbers after ± are expanded uncertainties.
What was measured:
[1] = mn = molality of the nth substance listed, in mol/kg; settings: 101 kPa, Liquid
[2] = 101 kPa, Liquid
[3] = xn = mol fraction of the nth substance listed; settings: 101 kPa, Liquid

In the case of NC(N)=O [urea] + CN(C)C=O, the mass density ([1]; 293.15 K, m1 = 0.02524) is reported as 949.268 ± 0.26 kg/m3, the mass density ([1]; 293.15 K, m1 = 0.05973) is reported as 949.989 ± 0.26 kg/m3 and the mass density ([1]; 293.15 K, m1 = 0.07556) is reported as 950.317 ± 0.26 kg/m3. The mass density ([1]; 293.15 K, m1 = 0.1157) was 951.155 ± 0.26 kg/m3, the mass density ([1]; 293.15 K, m1 = 0.1479) was 951.829 ± 0.25 kg/m3 and the mass density ([1]; 293.15 K, m1 = 0.1749) was 952.395 ± 0.25 kg/m3. The mass density ([1]; 293.15 K, m1 = 0.2003) was 952.924 ± 0.25 kg/m3, the mass density ([1]; 293.15 K, m1 = 0.2305) was 953.553 ± 0.25 kg/m3 and the mass density ([1]; 298.15 K, m1 = 0.02524) was 944.504 ± 0.27 kg/m3. For the same molecule, the mass density ([1]; 298.15 K, m1 = 0.05973) was 945.228 ± 0.26 kg/m3, the mass density ([1]; 298.15 K, m1 = 0.07556) was 945.556 ± 0.26 kg/m3 and the mass density ([1]; 298.15 K, m1 = 0.1157) was 946.396 ± 0.26 kg/m3. For the same molecule, the mass density ([1]; 298.15 K, m1 = 0.1479) was 947.074 ± 0.26 kg/m3, the mass density ([1]; 298.15 K, m1 = 0.1749) was 947.644 ± 0.26 kg/m3 and the mass density ([1]; 298.15 K, m1 = 0.2003) was 948.173 ± 0.26 kg/m3. It also gave a mass density ([1]; 298.15 K, m1 = 0.2305) of 948.805 ± 0.26 kg/m3, a mass density ([1]; 303.15 K, m1 = 0.02524) of 939.731 ± 0.27 kg/m3 and a mass density ([1]; 303.15 K, m1 = 0.05973) of 940.469 ± 0.27 kg/m3. The mass density ([1]; 303.15 K, m1 = 0.07556) was 940.781 ± 0.27 kg/m3, the mass density ([1]; 303.15 K, m1 = 0.1157) was 941.642 ± 0.27 kg/m3 and the mass density ([1]; 303.15 K, m1 = 0.1479) was 942.307 ± 0.27 kg/m3. The mass density ([1]; 303.15 K, m1 = 0.1749) was 942.893 ± 0.27 kg/m3, the mass density ([1]; 303.15 K, m1 = 0.2003) was 943.423 ± 0.27 kg/m3 and the mass density ([1]; 303.15 K, m1 = 0.2305) was 944.061 ± 0.27 kg/m3. It also gave a mass density ([1]; 308.15 K, m1 = 0.02524) of 934.955 ± 0.28 kg/m3, a mass density ([1]; 308.15 K, m1 = 0.05973) of 935.685 ± 0.28 kg/m3 and a mass density ([1]; 308.15 K, m1 = 0.07556) of 936.015 ± 0.28 kg/m3. The mass density ([1]; 308.15 K, m1 = 0.1157) was 936.861 ± 0.28 kg/m3, the mass density ([1]; 308.15 K, m1 = 0.1479) was 937.543 ± 0.28 kg/m3 and the mass density ([1]; 308.15 K, m1 = 0.1749) was 938.117 ± 0.27 kg/m3. The mass density ([1]; 308.15 K, m1 = 0.2003) was 938.649 ± 0.27 kg/m3 and the mass density ([1]; 308.15 K, m1 = 0.2305) was 939.284 ± 0.27 kg/m3.
CN(C)C=O [dimethylformamide] gave a mass density ([2]; 293.15 K) of 948.742 ± 0.38 kg/m3, a mass density ([2]; 298.15 K) of 943.976 ± 0.39 kg/m3 and a mass density ([2]; 303.15 K) of 939.201 ± 0.4 kg/m3. The mass density ([2]; 308.15 K) was 934.425 ± 0.4 kg/m3.
CN(C)C=O [dimethylformamide] + O gave a mass density ([3]; 293.15 K, x2 = 0) of 948.742 ± 0.38 kg/m3, a mass density ([3]; 293.15 K, x2 = 0.1) of 953.736 ± 0.35 kg/m3 and a mass density ([3]; 293.15 K, x2 = 0.2) of 959.305 ± 0.31 kg/m3. For the same molecule, the mass density ([3]; 293.15 K, x2 = 0.3) was 965.7 ± 0.28 kg/m3, the mass density ([3]; 293.15 K, x2 = 0.4) was 972.992 ± 0.25 kg/m3 and the mass density ([3]; 293.15 K, x2 = 0.5) was 980.854 ± 0.22 kg/m3. It also gave a mass density ([3]; 293.15 K, x2 = 0.6) of 988.587 ± 0.19 kg/m3, a mass density ([3]; 293.15 K, x2 = 0.7) of 995.526 ± 0.16 kg/m3 and a mass density ([3]; 293.15 K, x2 = 0.8) of 999.822 ± 0.14 kg/m3. For the same molecule, the mass density ([3]; 293.15 K, x2 = 0.9) was 999.742 ± 0.13 kg/m3, the mass density ([3]; 293.15 K, x2 = 0.92) was 999.208 ± 0.13 kg/m3 and the mass density ([3]; 293.15 K, x2 = 0.94) was 998.608 ± 0.13 kg/m3. The mass density ([3]; 293.15 K, x2 = 0.96) was 998.059 ± 0.13 kg/m3, the mass density ([3]; 293.15 K, x2 = 0.98) was 997.768 ± 0.13 kg/m3 and the mass density ([3]; 298.15 K, x2 = 0) was 943.976 ± 0.39 kg/m3. It also gave a mass density ([3]; 298.15 K, x2 = 0.1) of 948.984 ± 0.35 kg/m3, a mass density ([3]; 298.15 K, x2 = 0.2) of 954.568 ± 0.32 kg/m3 and a mass density ([3]; 298.15 K, x2 = 0.3) of 960.987 ± 0.29 kg/m3. For the same molecule, the mass density ([3]; 298.15 K, x2 = 0.4) was 968.301 ± 0.25 kg/m3, the mass density ([3]; 298.15 K, x2 = 0.5) was 976.205 ± 0.23 kg/m3 and the mass density ([3]; 298.15 K, x2 = 0.6) was 984.021 ± 0.2 kg/m3. It also gave a mass density ([3]; 298.15 K, x2 = 0.7) of 991.172 ± 0.17 kg/m3, a mass density ([3]; 298.15 K, x2 = 0.8) of 995.944 ± 0.15 kg/m3 and a mass density ([3]; 298.15 K, x2 = 0.9) of 996.891 ± 0.14 kg/m3. It also gave a mass density ([3]; 298.15 K, x2 = 0.92) of 996.65 ± 0.14 kg/m3, a mass density ([3]; 298.15 K, x2 = 0.94) of 996.378 ± 0.14 kg/m3 and a mass density ([3]; 298.15 K, x2 = 0.96) of 996.181 ± 0.14 kg/m3. The mass density ([3]; 298.15 K, x2 = 0.98) was 996.264 ± 0.13 kg/m3, the mass density ([3]; 303.15 K, x2 = 0) was 939.201 ± 0.4 kg/m3 and the mass density ([3]; 303.15 K, x2 = 0.1) was 944.221 ± 0.36 kg/m3. The mass density ([3]; 303.15 K, x2 = 0.2) was 949.818 ± 0.33 kg/m3, the mass density ([3]; 303.15 K, x2 = 0.3) was 956.248 ± 0.29 kg/m3 and the mass density ([3]; 303.15 K, x2 = 0.4) was 963.582 ± 0.26 kg/m3. The mass density ([3]; 303.15 K, x2 = 0.5) was 971.522 ± 0.23 kg/m3, the mass density ([3]; 303.15 K, x2 = 0.6) was 979.424 ± 0.2 kg/m3 and the mass density ([3]; 303.15 K, x2 = 0.7) was 986.773 ± 0.18 kg/m3. It also gave a mass density ([3]; 303.15 K, x2 = 0.8) of 992.004 ± 0.16 kg/m3, a mass density ([3]; 303.15 K, x2 = 0.9) of 993.926 ± 0.14 kg/m3 and a mass density ([3]; 303.15 K, x2 = 0.92) of 993.962 ± 0.14 kg/m3. For the same molecule, the mass density ([3]; 303.15 K, x2 = 0.94) was 993.992 ± 0.14 kg/m3, the mass density ([3]; 303.15 K, x2 = 0.96) was 994.123 ± 0.14 kg/m3 and the mass density ([3]; 303.15 K, x2 = 0.98) was 994.548 ± 0.14 kg/m3. It also gave a mass density ([3]; 308.15 K, x2 = 0) of 934.425 ± 0.4 kg/m3, a mass density ([3]; 308.15 K, x2 = 0.1) of 939.444 ± 0.36 kg/m3 and a mass density ([3]; 308.15 K, x2 = 0.2) of 945.04 ± 0.33 kg/m3. The mass density ([3]; 308.15 K, x2 = 0.3) was 951.488 ± 0.3 kg/m3, the mass density ([3]; 308.15 K, x2 = 0.4) was 958.821 ± 0.27 kg/m3 and the mass density ([3]; 308.15 K, x2 = 0.5) was 966.807 ± 0.24 kg/m3. The mass density ([3]; 308.15 K, x2 = 0.6) was 974.79 ± 0.21 kg/m3, the mass density ([3]; 308.15 K, x2 = 0.7) was 982.324 ± 0.18 kg/m3 and the mass density ([3]; 308.15 K, x2 = 0.8) was 988.003 ± 0.16 kg/m3. It also gave a mass density ([3]; 308.15 K, x2 = 0.9) of 990.852 ± 0.15 kg/m3, a mass density ([3]; 308.15 K, x2 = 0.92) of 991.147 ± 0.15 kg/m3 and a mass density ([3]; 308.15 K, x2 = 0.94) of 991.46 ± 0.14 kg/m3. The mass density ([3]; 308.15 K, x2 = 0.96) was 991.894 ± 0.14 kg/m3 and the mass density ([3]; 308.15 K, x2 = 0.98) was 992.639 ± 0.14 kg/m3.
In the case of NC(N)=O [urea] + O, the mass density ([1]; 293.15 K, m1 = 0.02557) is reported as 998.624 ± 0.18 kg/m3, the mass density ([1]; 293.15 K, m1 = 0.05326) is reported as 999.077 ± 0.18 kg/m3 and the mass density ([1]; 293.15 K, m1 = 0.07468) is reported as 999.427 ± 0.18 kg/m3. It also gave a mass density ([1]; 293.15 K, m1 = 0.09388) of 999.747 ± 0.18 kg/m3, a mass density ([1]; 293.15 K, m1 = 0.1236) of 1000.23 ± 0.18 kg/m3 and a mass density ([1]; 293.15 K, m1 = 0.1442) of 1000.57 ± 0.18 kg/m3. It also gave a mass density ([1]; 293.15 K, m1 = 0.1762) of 1001.1 ± 0.18 kg/m3, a mass density ([1]; 293.15 K, m1 = 0.2005) of 1001.5 ± 0.18 kg/m3 and a mass density ([1]; 298.15 K, m1 = 0.02557) of 997.458 ± 0.18 kg/m3. It also gave a mass density ([1]; 298.15 K, m1 = 0.05326) of 997.903 ± 0.18 kg/m3, a mass density ([1]; 298.15 K, m1 = 0.07468) of 998.251 ± 0.18 kg/m3 and a mass density ([1]; 298.15 K, m1 = 0.09388) of 998.559 ± 0.18 kg/m3. The mass density ([1]; 298.15 K, m1 = 0.1236) was 999.04 ± 0.18 kg/m3, the mass density ([1]; 298.15 K, m1 = 0.1442) was 999.367 ± 0.18 kg/m3 and the mass density ([1]; 298.15 K, m1 = 0.1762) was 999.891 ± 0.18 kg/m3. It also gave a mass density ([1]; 298.15 K, m1 = 0.2005) of 1000.28 ± 0.18 kg/m3, a mass density ([1]; 303.15 K, m1 = 0.02557) of 996.057 ± 0.19 kg/m3 and a mass density ([1]; 303.15 K, m1 = 0.05326) of 996.499 ± 0.19 kg/m3. For the same molecule, the mass density ([1]; 303.15 K, m1 = 0.07468) was 996.841 ± 0.18 kg/m3, the mass density ([1]; 303.15 K, m1 = 0.09388) was 997.145 ± 0.18 kg/m3 and the mass density ([1]; 303.15 K, m1 = 0.1236) was 997.618 ± 0.18 kg/m3. For the same molecule, the mass density ([1]; 303.15 K, m1 = 0.1442) was 997.949 ± 0.18 kg/m3, the mass density ([1]; 303.15 K, m1 = 0.1762) was 998.455 ± 0.18 kg/m3 and the mass density ([1]; 303.15 K, m1 = 0.2005) was 998.84 ± 0.18 kg/m3. It also gave a mass density ([1]; 308.15 K, m1 = 0.02557) of 994.437 ± 0.19 kg/m3, a mass density ([1]; 308.15 K, m1 = 0.05326) of 994.868 ± 0.19 kg/m3 and a mass density ([1]; 308.15 K, m1 = 0.07468) of 995.206 ± 0.19 kg/m3. The mass density ([1]; 308.15 K, m1 = 0.09388) was 995.501 ± 0.19 kg/m3, the mass density ([1]; 308.15 K, m1 = 0.1236) was 995.97 ± 0.19 kg/m3 and the mass density ([1]; 308.15 K, m1 = 0.1442) was 996.288 ± 0.19 kg/m3. The mass density ([1]; 308.15 K, m1 = 0.1762) was 996.793 ± 0.19 kg/m3 and the mass density ([1]; 308.15 K, m1 = 0.2005) was 997.172 ± 0.18 kg/m3.

Source: the NIST ThermoML archive (doi:10.1021/je300358u)
